Experimental data from article PMC6043506, “Investigating molecular interactions between oxidized neuroglobin and cytochrome c” (Scientific Reports, 2018).
Like-named read-outs stand apart in the source and are kept apart here.

Columns and labels:
[1] = target: T1, Cyt c (Equus caballus, UniProt P00004); assay: SPR qualitative comparison of peptide bindings to immobilized Cyt c; assay type: binding, Equine heart; conditions: for SPR signal compared to PhNgb1-Wt (qualitative) / binding to Cyt c (qualitative) / binding to Cyt c compared to PhNgb2-Wt (qualitative): SPR sensorgrams, HBS-P+1% DMSO, pH 7.4, 60 s injection; for SPR signal compared to PhNgb1-Wt (qualitative) / binding to Cyt c (qualitative): Fig. 4A; for binding to Cyt c (qualitative): repeated at least two times; for binding to Cyt c compared to PhNgb2-Wt (qualitative): Fig. 4C
T1 construct: Equine heart Cyt c and dimethyl sulfoxide (DMSO) were purchased from Sigma Aldrich; purchased Sigma Aldrich; host or cells: equine heart (tissue-derived, as the product name says)
T1 sequence (P00004 whole entry): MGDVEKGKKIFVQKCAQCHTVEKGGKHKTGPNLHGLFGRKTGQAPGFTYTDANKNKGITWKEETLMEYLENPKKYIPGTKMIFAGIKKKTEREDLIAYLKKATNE
Description: The peptides were dissolved in 100% DMSO and further diluted in the running buffer (10 mM HEPES pH 7.4, 150 mM NaCl, and 0.05% v/v surfactant P20 supplemented at 1% v/v DMSO) and injected over the Cyt c-immobilized surface at various concentrations.
Equine heart Cyt c and dimethyl sulfoxide (DMSO) were purchased from Sigma Aldrich. The amine coupling kit, Series S sensor chip CM5, and HBS-P+ buffer (0.1 M HEPES, 1.5 M NaCl, and 0.5% v/v surfactant P20) were purchased from GE Healthcare.
The SPR experiments were performed using a Biacore T200 SPR instrument (GE Healthcare). Cyt c, which was used as a ligand, was immobilized onto the CM5 chip up to a level of ~9000 Response Units (RU) in the presence of 10 mM sodium acetate buffer at pH 5.5. A standard amine coupling chemistry according to the manufacturer’s recommended protocol (GE Healthcare) was used to immobilize Cyt c. HBS-P+ buffer was diluted 10X to 10 mM HEPES pH 7.4, 150 mM NaCl, and 0.05% v/v surfactant P20 (HBS-P) in ddH2O and filtered through a […] polystyrene membrane filter. HBS-P was used as the immobilization running buffer. The peptides were used as analytes to inject over the Cyt c-immobilized CM5 chip surface in various concentrations in an HBS-P+1% DMSO buffer. HBS-P+1% DMSO was used as the running buffer in the analyte-ligand binding experiments. […] All analytes were injected in duplicate in each cycle. The kinetics experiments were repeated for three times. All qualitative experiments, including inhibition experiments were repeated at least two times with the wild type peptides injected as positive controls in each experiment.
VMD[34] was used to analyze and visualize the structure and simulation trajectories. The total interaction energy was calculated using NAMD energy plugin available in VMD. Each frame in the NVT simulation trajectory was saved at every 200 ps. An atomic distance of 3.5 Å and angle cutoff of 30 degrees were used to trace hydrogen bonding and the same atomic distance of 3.5 Å was used as the cut off to analyze interfacial contacts and salt bridges. For contacts analysis, only residues that show contacts for more than 1000 frames were considered. Carma[38] was used to determine the radius of gyration (Rg) and to perform PCA as well as PCA-based cluster analyses. GraphPad prism (GraphPad Software, Inc.) was used to generate the graphs. The bonding distances between D73 (in hNgb, atom OD2) and K72 (in Cyt c, atom NZ), T77 (in hNgb, atom OG1) and K72 (in Cyt c, atom NZ), E87 (in hNgb, atom OE2) and K27 (in Cyt c, atom NZ) as well as between E86 (in hNgb, atom OE2) and K27 (in Cyt c, atom NZ) were plotted. All graphs obtained from analyses of MD simulation trajectories were averaged with 25 neighboring points and 4th order smoothing polynomial using the GraphPad prism software. Biacore T200 evaluation software version 1.0 (GE Healthcare) was used to analyze the SPR sensorgrams.

[2] = test system: PhNgb1-Wt binding to Cyt c; assay: SPR inhibition experiment: PhNgb1-Wt binding to immobilized Cyt c in presence of PCyt c; parameters: species or system Equine heart; conditions: mixture of PhNgb1-Wt and PCyt c in 1:2 molar ratio, Fig. 4B, 60 s injection
Description: We conducted SPR experiments with mutated peptides. […] (hNgb) and […] (hNgb) together take part in binding to […] (Cyt c), making a strong bonding as predicted by simulations. We could not perform quantitative investigations (via determination of KD values) for the mutated peptides due to solubility issues at higher concentrations. […] This experiment further confirms the involvement of the predicted amino acid […]) in the hNgb-Cyt c complex formation. […] The SPR experiments were performed using a Biacore T200 SPR instrument (GE Healthcare). Cyt c, which was used as a ligand, was immobilized onto the CM5 chip up to a level of ~9000 Response Units (RU) in the presence of 10 mM sodium acetate buffer at pH 5.5. A standard amine coupling chemistry according to the manufacturer's recommended protocol (GE Healthcare) was used to immobilize Cyt c. HBS-P+ buffer was diluted 10X to 10 mM HEPES pH 7.4, 150 mM NaCl, and 0.05% v/v surfactant P20 (HBS-P) in ddH2O and filtered through a […] polystyrene membrane filter. HBS-P was used as the immobilization running buffer. The peptides were used as analytes to inject over the Cyt c-immobilized CM5 chip surface in various concentrations in an HBS-P+1% DMSO buffer. HBS-P+1% DMSO was used as the running buffer in the analyte-ligand binding experiments. […] All analytes were injected in duplicate in each cycle. […]

[3] = test system: ferric Cyt c; conditions: SPR, nanopore-based nanopipettes, ITC; ferric hNgb and ferric Cyt c; cited from earlier work
Excerpt: Electrochemical impedance spectroscopy measurements have also confirmed the formation of an hNgb-Cyt c complex. Computational docking is useful to investigate the complex formation between proteins. Several computational docking studies have bee ...

[4] = test system: caspase 9 activation; conditions: binding of Ngb to Cyt c alone, no redox reaction required, cited from earlier work
Excerpt: Cytochrome c (Cyt c), which is another heme protein[13], is a known Ngb binding partner[12],[14]. This mitochondrial heme protein triggers cell apoptosis during apoptotic cell signaling. During ischemic insults, the cellular apoptotic pathway is activated, leading to the release of ferric Cyt c, which is an essential component of the apoptosome, into the cytoplasm[16]–[18]. […] Importantly, this K72 residue takes part in interactions of Cyt c with apoptotic protease-activation factor-1[31]. […] There ...

Row | Molecule | SPR signal compared to PhNgb1-Wt (qualitative) [1] | binding to Cyt c (qualitative) [1] | binding to Cyt c compared to PhNgb2-Wt (qualitative) [1] | further results
1 | MLVIAAAVTNVED [PhNgb1-M2] | weaker SPR signals as compared to SPR signals for PhNgb1-Wt | bind to Cyt c | – | –
2 | LENPKKYIP [PCyt c, peptide with amino acids L68 to P76 in Cyt c] | – | – | – | binding of PCyt c to immobilized Cyt c (qualitative) ([1]; SPR): does not bind to immobilized Cyt c; inhibition of PhNgb1-Wt binding (qualitative) [2]: diminished signal as compared to PhNgb1-Wt signal
3 | SSLEAYLAS [PhNgb2-M1] | – | – | stronger binding | –
4 | SSLAAYLAS [PhNgb2-M2] | – | – | comparable binding | –
5 | MLVIDAAVANVED [PhNgb1-M1] | weaker SPR signals as compared to SPR signals for PhNgb1-Wt | bind to Cyt c | – | –
6 | hNgb: ferric human Ngb; six-coordinated heme protein; PDB ID 4MPM (Chain B) (protein, UniProt Q9NPG2 1-151, looked up, ferric heme) Neuroglobin: MERPEPELIRQSWRAVSRSPLEHGTVLFARLFALEPDLLPLFQYNCRQFSSPEDCLSSPEFLDHIRKVMLVIDAAVTNVEDLSSLEEYLASLGRKHRAVGVKLSSFSTVGESLLYMLEKCLGPAFTPATRAAWSQLYGAVVQAMSRGWDGE | – | – | – | affinity to ferric Cyt c [3]: micromolar affinity; effect on caspase 9 activation [4]: enough to suppress caspase-9 activation; effect on caspase 9 activation ([4]; listed as Ngb): sufficient to block the Cyt c-induced caspase 9 activation
